Experiments:
P2X7 [1] = molecular target: T1, P2X7 (Homo sapiens, UniProt Q99572); assay: IL-1β release assay in THP-1 cells (sandwich ELISA); assay type: cell-based; design: release of mature IL-1β in the culture medium of THP-1 cells; endogenous in cells; host or cells: THP-1 cells (PMA-differentiated, LPS-primed); settings: PMA, LPS primed, stimulated with 0.8 mM BzATP, mature IL-1β release, read-out: hTHP-1/IL-ib IC50
T1 sequence (Q99572 1-595): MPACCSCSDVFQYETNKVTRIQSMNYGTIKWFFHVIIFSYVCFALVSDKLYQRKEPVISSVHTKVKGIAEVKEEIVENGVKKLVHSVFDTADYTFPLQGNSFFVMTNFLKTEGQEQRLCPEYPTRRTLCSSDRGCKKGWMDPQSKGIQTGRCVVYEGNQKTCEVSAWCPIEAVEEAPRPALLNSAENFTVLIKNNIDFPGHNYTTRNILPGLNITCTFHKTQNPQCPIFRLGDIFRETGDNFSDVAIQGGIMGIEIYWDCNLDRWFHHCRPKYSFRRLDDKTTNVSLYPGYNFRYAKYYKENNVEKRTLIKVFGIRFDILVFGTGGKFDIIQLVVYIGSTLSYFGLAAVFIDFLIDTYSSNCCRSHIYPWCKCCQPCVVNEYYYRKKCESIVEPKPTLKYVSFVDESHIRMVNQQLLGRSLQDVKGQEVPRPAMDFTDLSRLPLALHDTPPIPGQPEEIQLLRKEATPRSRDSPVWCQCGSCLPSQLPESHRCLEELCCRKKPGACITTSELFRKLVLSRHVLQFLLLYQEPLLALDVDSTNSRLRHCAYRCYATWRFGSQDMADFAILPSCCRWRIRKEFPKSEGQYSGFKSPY
Experimental: The activation of P2X7 by ATP leads to a fast transient activation of cells resulting in influx of Ca^2+ followed by conversion of pro-IL-1β to active IL-1β. The functional activity of P2X7 compounds was measured by the release of mature IL-1β in the culture medium of THP-1 cells, detected by sandwich ELISA. Cells were maintained in complete growth medium (RPMI 1640+10% HI-FCS+2 mM L-glutamine+1×PS). […] THP-1 cells were harvested from the flask in 50 ml by centrifugation for 3 min at 100 g. The cells were resuspended to 2×10^5 cells/ml in medium supplemented with 0.5 μM PMA and incubated. The cells were washed and resuspended to 1.5×10^5 cells/ml in medium complemented with 10 ng/ml LPS, and the cells were primed for 4 h at 37° C., 5% CO2. After addition of 20 μL of prediluted test compounds, blank, standard and control reagents, cells were incubated for a further 20 min at 37° C. and stimulated with 0.8 mM BzATP for 30 minutes. The cells were centrifuged, supernatant was collected and the presence of mature IL-1β was detected using Dual human IL-1b kit following manufacturer's instruction. The tetrahydrobenzodiazepine analogs effectively modulated the activity of P2X7 in the cells as measured by the levels of pro-inflammatory cytokine IL-1β, which is released by the activation of P2X7 receptor.

P2X7 [2] = molecular target: T1, P2X7; assay: Pore permeation assay (YO PRO dye uptake, BzATP-induced); assay type: cell-based; design: expressed in transfected cells; host or cells: HEK293; settings: HEK293 transfected with human P2X7 receptor; YO PRO dye 1 uM, BzATP 10 uM; read-out: hP2X7 IC50
Experimental: Agonist-induced pore formation was determined by measuring cellular uptake of YO PRO fluorescence dye in HEK293 transfected with human P2X7 receptor. A HEK293 cell over expressing human P2X7 was harvested using HQTase reagent to detach the cells from T75 cm flask. The harvested cells are centrifuged @ 1200 rpm for 5 min at room temperature. The viability of cells was determined by Trypan blue dye and the cells are plated @ 10,000 cell/well in 50 ul volume in a 384 W BD Poly lysine coated plate and incubated overnight at 37 C. After overnight incubation, the culture medium was replaced with 35 ul/well assay buffer (5 mM KCl, 0.1 mM CaCl2, 5 mM Glucose, 10 mM HEPES buffer pH7.4 containing 125 mM NaCl. The serial dilution of compounds was performed using Bravo liquid handling instrument and the compounds were added using Bravo to the cell assay plate starting at 2.5 uM with three dilutions for 10 points. The positive control inhibitor compound was added to column 23. The plate was shaken slowly on a plate shaker for 10 seconds. The cells were incubated with the compound for 20 minutes at room temperature. After the incubation period, YO PRO dye (1 uM) along with BzATP (10 uM) were added to cells at 10 ul/well. The plate was centrifuged at 1000 rpm for 5 seconds and incubated at room temperature for 30 minutes. The uptake of YO PRO dye into the cells was measured using Envision Fluorescence plate reader instrument (Perkin Elmer).

| IC50 (P2X7 [1]) [nM] | IC50 (P2X7 [2]) [nM] | Structure (SMILES) |
| --- | --- | --- |
| 10 to 100 | < 10 | O=C(NCC1CCCC(F)(F)C1)c1c(Cl)ccc2nc(N3CC[C@@H](F)C3)ccc12 (stereo partly drawn) [Compound 1, 6-Chloro-2-((R)-3-fluoropyrrolidin-1-yl)-quinoline-5-carboxylic acid (3,3-difluoro-cyclohexylmethyl)-amide] |
| 101 to 500 | < 10 | O=C(NCC1CCCC(F)(F)C1)c1c(Cl)ccc2nc(N3CC[C@H](F)C3)ccc12 (stereo partly drawn) [Compound 3, 6-Chloro-2-((S)-3-fluoropyrrolidin-1-yl)-quinoline-5-carboxylic acid (3,3-difluoro-cyclohexylmethyl)-amide] |
| < 10 | < 10 | C[C@@H]1CCC[C@](O)(CNC(=O)c2c(Cl)ccc3nc(N4CC[C@H](N(C)C)C4)ccc23)C1 [Compound 4, 6-Chloro-2-((S)-3-dimethylamino-pyrrolidin-1-yl)-quinoline-5-carboxylic acid ((1R,3R)-1-hydroxy-3-methyl-cyclohexylmethyl)-amide] |
| 10 to 100 | < 10 | C[C@@H]1CCC[C@](O)(CNC(=O)c2c(Cl)ccc3nc(N4CCC(F)C4)ccc23)C1 (stereo partly drawn) [Compound 5, 6-Chloro-2-(3-fluoropyrrolidin-1-yl)-quinoline-5-carboxylic acid ((1R,3R)-1-hydroxy-3-methyl-cyclohexylmethyl)-amide] |
| 10 to 100 | < 10 | C[C@@H]1CCC[C@](O)(CNC(=O)c2c(Cl)ccc3nc(N4CCC(N(C)C)C4)ccc23)C1 (stereo partly drawn) [Compound 6, 6-Chloro-2-(3-dimethylamino-pyrrolidin-1-yl)-quinoline-5-carboxylic acid ((1R,3R)-1-hydroxy-3-methyl-cyclohexylmethyl)-amide] |
| 10 to 100 | < 10 | C[C@@H]1CCC[C@](O)(CNC(=O)c2c(Cl)ccc3nc(N4CC[C@@H](F)C4)ccc23)C1 [Compound 8, 6-Chloro-2-(3-(R)-fluoropyrrolidin-1-yl)-quinoline-5-carboxylic acid ((1R,3R)-1-hydroxy-3-methyl-cyclohexylmethyl)-amide] |
| 10 to 100 | < 10 | C[C@@H]1CCC[C@](O)(CNC(=O)c2c(Cl)ccc3nc(N4CC[C@H](F)C4)ccc23)C1 [Compound 9, 6-Chloro-2-(3-(S)-fluoropyrrolidin-1-yl)-quinoline-5-carboxylic acid ((1R,3R)-1-hydroxy-3-methyl-cyclohexylmethyl)-amide] |
|  | < 10 | CC1CCCC(O)(CNC(=O)c2c(Cl)ccc3nc(N4CC[C@@H](N(C)C)C4)ccc23)C1 (stereo partly drawn) [Compound 14] |
|  | 10 to 100 | C[C@@H]1CCC[C@](O)(CNC(=O)c2c(Cl)ccc3nc(N4CC[C@@H](N(C)C)C4)ccc23)C1 [Compound 22, 6-Chloro-2-((R)-3-dimethylamino-pyrrolidin-1-yl)-quinoline-5-carboxylic acid ((1R,3R)-1-hydroxy-3-methyl-cyclohexylmethyl)-amide] |
|  | 10 to 100 | O=C(NCC1CCC(F)(F)CC1)c1c(Cl)ccc2nc(N3CCC(O)C3)ccc12 (stereo not drawn) [Compound 57, 6-Chloro-2-(3-hydroxy-pyrrolidin-1-yl)-quinoline-5-carboxylic acid (4,4-difluoro-cyclo hexylmethyl)-amide] |
|  | 101 to 500 | O=C(NCC1CCC(F)(F)CC1)c1c(Cl)ccc2nc(N3CCCC(C(=O)O)C3)ccc12 (stereo not drawn) [Compound 79, 1-{6-Chloro-5-[(4,4-difluoro-cyclohexylmethyl)-carbamoyl]-quinolin-2-yl}-piperidine-3-carboxylic acid] |

Further lines, the compound ahead of its results:

| Structure (SMILES) | IC50 (P2X7 [1]) [nM] | IC50 (P2X7 [2]) [nM] |
| --- | --- | --- |
| C[C@H]1CCC[C@@](O)(CNC(=O)c2c(Cl)ccc3nc(N4CCCC4)ccc23)C1 [Compound 2, 6-Chloro-2-pyrrolidin-1-yl-quinoline-5-carboxylic acid ((1S,3S)-1-hydroxy-3-methyl-cyclohexylmethyl)-amide] |  | < 10 |
| C[C@H]1CCC[C@@](O)(CNC(=O)c2c(Cl)ccc3nc(C4CCCC4)ccc23)C1 [Compound 7, 6-Chloro-2-cyclopentyl-quinoline-5-carboxylic acid ((1S,3S)-1-hydroxy-3-methyl-cyclohexylmethyl)-amide] |  | < 10 |
| C[C@@H]1CCC[C@](O)(CNC(=O)c2c(Cl)ccc3nc(C4CCCC4)ccc23)C1 [Compound 15, 6-Chloro-2-cyclopentyl-quinoline-5-carboxylic acid ((1R,3R)-1-hydroxy-3-methyl-cyclohexylmethyl)-amide] |  | < 10 |
| C[C@@H]1CCC[C@](O)(CNC(=O)c2c(Cl)ccc3nc(N4CCCC4)ccc23)C1 [Compound 16, 6-Chloro-2-pyrrolidin-1-yl-quinoline-5-carboxylic acid ((1R,3R)-1-hydroxy-3-methyl-cyclohexylmethyl)-amide] |  | < 10 |
| O=C(NCC1CCC(F)(F)CC1)c1c(Cl)ccc2nc(C3CCCC3)ccc12 [Compound 43, 6-Chloro-2-cyclopentyl-quinoline-5-carboxylic acid (4,4-difluoro-cyclohexylmethyl)-amide] |  | 10 to 100 |
| O=C(NCC1CCC(F)(F)CC1)c1c(Cl)ccc2nc(C3CCNCC3)ccc12 [Compound 53, 6-Chloro-2-piperidin-4-yl-quinoline-5-carboxylic acid (4,4-difluorocyclohexylmethyl)-amide] |  | 10 to 100 |
| CC(C)(C)OC(=O)N1CCC(c2ccc3c(C(=O)NCC4CCC(F)(F)CC4)c(Cl)ccc3n2)CC1 [Compound 71, 4-{6-Chloro-5-[(4,4-difluoro-cyclohexylmethyl)-carbamoyl]-quinolin-2-yl}-piperidine-1-carboxylic acid tert-butyl ester] |  | 10 to 100 |
| O=C1C=C(c2ccc3c(C(=O)NCC4CCC(F)(F)CC4)c(Cl)ccc3n2)CC1 [Compound 72] |  | 10 to 100 |
| COCCCNc1ccc2c(C(=O)NCC3CCC(F)(F)CC3)c(Cl)ccc2n1 [Compound 77, 6-Chloro-2-(3-methoxy-propylamino)-quinoline-5-carboxylic acid (4,4-difluoro-cyclohexyl methyl)-amide] |  | 101 to 500 |
| CCOC(=O)CCNc1ccc2c(C(=O)NCC3CCC(F)(F)CC3)c(Cl)ccc2n1 [Compound 81, 3-{6-Chloro-5-[(4,4-difluoro-cyclohexylmethyl)-carbamoyl]-quinolin-2-ylamino}-propionic acid ethyl ester] |  | 101 to 500 |
| CN(C)C(=O)CCNc1ccc2c(C(=O)NCC3CCC(F)(F)CC3)c(Cl)ccc2n1 [Compound 82, 6-Chloro-2-(2-dimethylcarbamoyl-ethylamino)-quinoline-5-carboxylic acid (4,4-difluoro-cyclo hexyl methyl)-amide] |  | 101 to 500 |
| O=C(O)CCNc1ccc2c(C(=O)NCC3CCC(F)(F)CC3)c(Cl)ccc2n1 [Compound 83, 3-{6-Chloro-5-[(4,4-difluorocyclohexylmethyl)-carbamoyl]-quinolin-2-ylamino}-propionic acid] |  | > 1000 |

From patent US9399623B2, “Quinoline derivatives and their use in neurodegenerative diseases” (Merck Patent GmbH, priority 2014, dated 2016)
